Reference: patent US11649255B2, “Indazoles as hematopoietic progenitor kinase 1 (HPK1) inhibitors and methods using same” (1st Biotherapeutics, Inc., priority 2020, dated 2023)

biological target: recombinant human HPK1 (Homo sapiens (Human), UniProt Q92918); assay: HPK1 kinase assay (ADP-Glo); assay type: biochemical; conditions: 25 μM ATP, MBP substrate
How it was run: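 Activity was read as ADP formed, detected by ADP-Glo luminescence after the reaction of 5 ng recombinant human HPK1 with MBP and ATP (stocks 0.5 μg/μl and 25 μM) for 40 min at 30 °C. Buffer was Tris pH 7.5 with MgCl2, BSA and DTT, with compound in 0.5% DMSO. IC50 came from inhibition curves.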

recombinant human HPK1, sequence (Q92918 whole entry): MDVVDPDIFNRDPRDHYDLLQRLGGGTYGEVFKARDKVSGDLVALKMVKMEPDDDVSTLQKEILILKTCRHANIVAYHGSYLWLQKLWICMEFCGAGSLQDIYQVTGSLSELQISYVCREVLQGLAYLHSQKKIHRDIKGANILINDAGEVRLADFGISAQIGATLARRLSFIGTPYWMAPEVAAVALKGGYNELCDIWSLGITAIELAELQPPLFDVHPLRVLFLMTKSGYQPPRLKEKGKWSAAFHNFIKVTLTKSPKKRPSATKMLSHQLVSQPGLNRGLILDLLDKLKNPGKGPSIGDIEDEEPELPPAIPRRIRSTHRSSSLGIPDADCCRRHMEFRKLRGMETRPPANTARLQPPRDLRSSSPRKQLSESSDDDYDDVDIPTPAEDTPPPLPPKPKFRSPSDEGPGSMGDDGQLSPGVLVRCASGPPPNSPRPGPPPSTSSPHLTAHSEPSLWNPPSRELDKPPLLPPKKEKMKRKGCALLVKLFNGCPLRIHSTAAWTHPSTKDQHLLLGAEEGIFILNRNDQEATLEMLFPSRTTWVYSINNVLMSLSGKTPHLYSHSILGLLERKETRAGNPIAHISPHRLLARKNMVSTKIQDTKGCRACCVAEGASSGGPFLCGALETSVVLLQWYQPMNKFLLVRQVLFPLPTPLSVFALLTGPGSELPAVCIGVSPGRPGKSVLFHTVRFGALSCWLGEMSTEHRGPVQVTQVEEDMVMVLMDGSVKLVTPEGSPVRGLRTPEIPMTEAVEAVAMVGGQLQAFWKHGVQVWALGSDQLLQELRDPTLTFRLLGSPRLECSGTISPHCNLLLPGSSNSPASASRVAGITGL

Row | SMILES | IC50 [nM]
1 | CC(C)Nc1c(F)c(Cl)c(-c2cc(N)c3nc(NC(=O)[C@@H]4C[C@@H]4F)cn3c2)c2cn[nH]c12 [Example 403, (1S,2S)-N-(8-amino-6-(5-chloro-6-fluoro-7-(isopropylamino)-1H-indazol-4-yl)imidazo[1,2-a]pyridin-2-yl)-2-fluorocyclopropane-1-carboxamide. 1 formic acid] | > 1000
2 | CC(C)Oc1c(F)c(Cl)c(-c2ccc3nc(NC(=O)[C@@H]4C[C@@H]4F)cn3c2)c2cn[nH]c12 [Example 404, (1S,2S)-N-(6-(5-chloro-6-fluoro-7-isopropoxy-1H-indazol-4-yl)imidazo[1,2-a]pyridin-2-yl)-2-fluorocyclopropane-1-carboxamide] | < 100
3 | CC(C)c1c(F)c(Cl)c(-c2ccc3nc(NC(=O)[C@@H]4C[C@@H]4F)cn3c2)c2cn[nH]c12 [Example 405, (1S,2S)-N-(6-(5-chloro-6-fluoro-7-isopropyl-1H-indazol-4-yl)imidazo[1,2-a]pyridin-2-yl)-2-fluorocyclopropane-1-carboxamide] | < 100
4 | O=C(Nc1cn2cc(-c3c(Cl)c(F)c(C4CCCC4)c4[nH]ncc34)ccc2n1)[C@@H]1C[C@@H]1F [Example 406, (1S,2S)-N-(6-(5-chloro-7-cyclopentyl-6-fluoro-1H-indazol-4-yl)imidazo[1,2-a]pyridin-2-yl)-2-fluorocyclopropane-1-carboxamide] | < 100
5 | C[C@H](c1c(F)c(Cl)c(-c2ccc3nc(NC(=O)[C@@H]4C[C@@H]4F)cn3c2)c2cn[nH]c12)n1ncnn1 [Example 407, (1S,2S)-N-(6-(7-((R)-1-(2H-tetrazol-2-yl)ethyl)-5-chloro-6-fluoro-1H-indazol-4-yl)imidazo[1,2-a]pyridin-2-yl)-2-fluorocyclopropane-1-carboxamide] | < 100
6 | C[C@@H](c1c(F)c(Cl)c(-c2ccc3nc(NC(=O)[C@@H]4C[C@@H]4F)cn3c2)c2cn[nH]c12)n1ncnn1 [Example 408, (1S,2S)-N-(6-(7-((S)-1-(2H-tetrazol-2-yl)ethyl)-5-chloro-6-fluoro-1H-indazol-4-yl)imidazo[1,2-a]pyridin-2-yl)-2-fluorocyclopropane-1-carboxamide] | < 100
7 | O=C(Nc1cn2cc(-c3c(Cl)c(F)c(C4CCCC4O)c4[nH]ncc34)ccc2n1)[C@@H]1C[C@@H]1F (stereo partly drawn) [Example 410, (1S,2S)-N-(6-(5-chloro-6-fluoro-7-(2-hydroxycyclopentyl)-1H-indazol-4-yl)imidazo[1,2-a]pyridin-2-yl)-2-fluorocyclopropane-1-carboxamide] | < 100
8 | CC(=S)Nc1c(F)c(Cl)c(-c2ccc3nc(NC(=O)[C@@H]4C[C@@H]4F)cn3c2)c2cn[nH]c12 [Example 411, (1S,2S)-N-(6-(5-chloro-7-ethanethioamido-6-fluoro-1H-indazol-4-yl)imidazo[1,2-a]pyridin-2-yl)-2-fluorocyclopropane-1-carboxamide] | < 100
9 | CC(=O)N(C)C(C)c1c(F)c(Cl)c(-c2ccc3nc(NC(=O)[C@@H]4C[C@@H]4F)cn3c2)c2cn[nH]c12 (stereo partly drawn) [Example 412, (1S,2S)-N-(6-(5-chloro-6-fluoro-7-(1-(N-methylacetamido)ethyl)-1H-indazol-4-yl)imidazo[1,2-a]pyridin-2-yl)-2-fluorocyclopropane-1-carboxamide] | < 100
10 | C[C@H](c1c(F)c(Cl)c(-c2ccc3nc(NC(=O)[C@@H]4C[C@@H]4F)cn3c2)c2cn[nH]c12)n1cnnn1 [Example 413] | < 100
11 | C[C@@H](c1c(F)c(Cl)c(-c2ccc3nc(NC(=O)[C@@H]4C[C@@H]4F)cn3c2)c2cn[nH]c12)n1cnnn1 [Example 414, (1S,2S)-N-(6-(7-((S)-1-(1H-tetrazol-1-yl)ethyl)-5-chloro-6-fluoro-1H-indazol-4-yl)imidazo[1,2-a]pyridin-2-yl)-2-fluorocyclopropane-1-carboxamide] | < 100
12 | CC(=O)NC(C)c1c(F)c(Cl)c(-c2ccc3nc(NC(=O)[C@@H]4C[C@@H]4F)cn3c2)c2cn[nH]c12 (stereo partly drawn) [Example 417, (1S,2S)-N-(6-(7-(1-acetamidoethyl)-5-chloro-6-fluoro-1H-indazol-4-yl)imidazo[1,2-a]pyridin-2-yl)-2-fluorocyclopropane-1-carboxamide] | < 100
13 | CC(Nc1c(F)c(Cl)c(-c2ccc3nc(NC(=O)[C@@H]4C[C@@H]4F)cn3c2)c2cn[nH]c12)C1CC1 (stereo partly drawn) [Example 420, (1S,2S)-N-(6-(5-chloro-7-((1-cyclopropylethyl)amino)-6-fluoro-1H-indazol-4-yl)imidazo[1,2-a]pyridin-2-yl)-2-fluorocyclopropane-1-carboxamide] | < 100
14 | O=C(Nc1cn2cc(-c3c(Cl)c(F)c(NCC4CC4)c4[nH]ncc34)ccc2n1)[C@@H]1C[C@@H]1F [Example 421, (1S,2S)-N-(6-(5-chloro-7-((cyclopropylmethyl)amino)-6-fluoro-1H-indazol-4-yl)imidazo[1,2-a]pyridin-2-yl)-2-fluorocyclopropane-1-carboxamide] | < 100
15 | COC[C@H](C)c1c(F)c(Cl)c(-c2ccc3nc(NC(=O)[C@@H]4C[C@@H]4F)cn3c2)c2cn[nH]c12 [Example 422, (1S,2S)-N-(6-(5-chloro-6-fluoro-7-((R)-1-methoxypropan-2-yl)-1H-indazol-4-yl)imidazo[1,2-a]pyridin-2-yl)-2-fluorocyclopropane-1-carboxamide] | < 100
16 | COC[C@@H](C)c1c(F)c(Cl)c(-c2ccc3nc(NC(=O)[C@@H]4C[C@@H]4F)cn3c2)c2cn[nH]c12 [Example 423, (1S,2S)-N-(6-(5-chloro-6-fluoro-7-((S)-1-methoxypropan-2-yl)-1H-indazol-4-yl)imidazo[1,2-a]pyridin-2-yl)-2-fluorocyclopropane-1-carboxamide] | < 100

Further lines, results first:

Row | IC50 [nM] | SMILES
17 | < 100 | CCC(=O)NC(C)c1c(F)c(Cl)c(-c2ccc3nc(NC(=O)[C@@H]4C[C@@H]4F)cn3c2)c2cn[nH]c12 (stereo partly drawn) [Example 424, (1S,2S)-N-(6-(5-chloro-6-fluoro-7-(1-propionamidoethyl)-1H-indazol-4-yl)imidazo[1,2-a]pyridin-2-yl)-2-fluorocyclopropane-1-carboxamide]
18 | < 100 | CC(Nc1c(F)c(Cl)c(-c2ccc3nc(NC(=O)[C@@H]4C[C@@H]4F)cn3c2)c2cn[nH]c12)C(F)F (stereo partly drawn) [Example 425, (1S,2S)-N-(6-(5-chloro-7-((1,1-difluoropropan-2-yl)amino)-6-fluoro-1H-indazol-4-yl)imidazo[1,2-a]pyridin-2-yl)-2-fluorocyclopropane-1-carboxamide]
19 | < 100 | CC(NC=O)c1c(F)c(Cl)c(-c2ccc3nc(NC(=O)[C@@H]4C[C@@H]4F)cn3c2)c2cn[nH]c12 (stereo partly drawn) [Example 426, (1S,2S)-N-(6-(5-chloro-6-fluoro-7-(1-formamidoethyl)-1H-indazol-4-yl)imidazo[1,2-a]pyridin-2-yl)-2-fluorocyclopropane-1-carboxamide]
20 | < 100 | CC(NC1COC1)c1c(F)c(Cl)c(-c2ccc3nc(NC(=O)[C@@H]4C[C@@H]4F)cn3c2)c2cn[nH]c12 (stereo partly drawn) [Example 427, (1S,2S)-N-(6-(5-chloro-6-fluoro-7-(1-(oxetan-3-ylamino)ethyl)-1H-indazol-4-yl)imidazo[1,2-a]pyridin-2-yl)-2-fluorocyclopropane-1-carboxamide]
21 | < 100 | CC(NC(=O)C(F)(F)F)c1c(F)c(Cl)c(-c2ccc3nc(NC(=O)[C@@H]4C[C@@H]4F)cn3c2)c2cn[nH]c12 (stereo partly drawn) [Example 428, (1S,2S)-N-(6-(5-chloro-6-fluoro-7-(1-(2,2,2-trifluoroacetamido)ethyl)-1H-indazol-4-yl)imidazo[1,2-a]pyridin-2-yl)-2-fluorocyclopropane-1-carboxamide]
22 | < 100 | CC(NC1(C#N)CC1)c1c(F)c(Cl)c(-c2ccc3nc(NC(=O)[C@@H]4C[C@@H]4F)cn3c2)c2cn[nH]c12 (stereo partly drawn) [Example 429, (1S,2S)-N-(6-(5-chloro-7-(1-((1-cyanocyclopropyl)amino)ethyl)-6-fluoro-1H-indazol-4-yl)imidazo[1,2-a]pyridin-2-yl)-2-fluorocyclopropane-1-carboxamide]
23 | < 100 | CC(NC(=O)C1CCC1)c1c(F)c(Cl)c(-c2ccc3nc(NC(=O)[C@@H]4C[C@@H]4F)cn3c2)c2cn[nH]c12 (stereo partly drawn) [Example 430, N-(1-(5-chloro-6-fluoro-4-(2-((1S,2S)-2-fluorocyclopropane-1-carboxamido)imidazo[1,2-a]pyridin-6-yl)-1H-indazol-7-yl)ethyl)cyclobutanecarboxamide]
24 | 101 to 500 | O=C(Nc1cn2cc(-c3c(Cl)c(F)c(-c4cnc[nH]4)c4[nH]ncc34)ccc2n1)[C@@H]1C[C@@H]1F [Example 431, (1S,2S)-N-(6-(5-chloro-6-fluoro-7-(1H-imidazol-5-yl)-1H-indazol-4-yl)imidazo[1,2-a]pyridin-2-yl)-2-fluorocyclopropane-1-carboxamide]
25 | < 100 | CNC(=O)C(C)c1c(F)c(Cl)c(-c2ccc3nc(NC(=O)[C@@H]4C[C@@H]4F)cn3c2)c2cn[nH]c12 (stereo partly drawn) [Example 433, (1S,2S)-N-(6-(5-chloro-6-fluoro-7-(1-(methylamino)-1-oxopropan-2-yl)-1H-indazol-4-yl)imidazo[1,2-a]pyridin-2-yl)-2-fluorocyclopropane-1-carboxamide]
26 | < 100 | CNC(=O)N(C)c1c(F)c(Cl)c(-c2ccc3nc(NC(=O)[C@@H]4C[C@@H]4F)cn3c2)c2cn[nH]c12 [Example 435, (1S,2S)-N-(6-(5-chloro-7-(1,3-dimethylureido)-6-fluoro-1H-indazol-4-yl)imidazo[1,2-a]pyridin-2-yl)-2-fluorocyclopropane-1-carboxamide]
27 | < 100 | CO[C@H](C)[C@@H](OC)c1c(F)c(Cl)c(-c2ccc3nc(NC(=O)[C@@H]4C[C@@H]4F)cn3c2)c2cn[nH]c12 [Example 440, (1S,2S)-N-(6-(5-chloro-7-((1S,2R)-1,2-dimethoxypropyl)-6-fluoro-1H-indazol-4-yl)imidazo[1,2-a]pyridin-2-yl)-2-fluorocyclopropane-1-carboxamide]
